The compounds below were run against T1, hMAGL (Homo sapiens, UniProt Q99685) (assay: 2-AG assay: MAGL inhibition, hydrolysis of 2-arachidonoylglycerol to arachidonic acid followed by mass spectrometry).
T1 sequence (Q99685 1-303): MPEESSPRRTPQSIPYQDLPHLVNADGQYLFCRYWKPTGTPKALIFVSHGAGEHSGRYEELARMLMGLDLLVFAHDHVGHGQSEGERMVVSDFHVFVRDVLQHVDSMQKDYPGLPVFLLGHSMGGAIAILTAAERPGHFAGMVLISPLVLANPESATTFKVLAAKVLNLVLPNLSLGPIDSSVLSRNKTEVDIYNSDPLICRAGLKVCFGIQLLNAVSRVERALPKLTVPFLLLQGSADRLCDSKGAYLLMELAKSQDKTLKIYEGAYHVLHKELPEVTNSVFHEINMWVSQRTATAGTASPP
Format: biochemical
Summary of the method: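 MAGL preincubated with compound 15 min at RT in 50 mM Tris, 1 mM EDTA, 0.01% Tween-20, 2.5% DMSO; reaction started with 8 μM 2-AG (final), […], 30 min at RT. Quenched with acetonitrile containing d8-arachidonic acid; arachidonic acid quantified by RapidFire SPE-triple quad MS as arachidonic acid/d8 ratio.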

SMILES | IC50 [nM]
O=C(N1CC2(CCC(Cc3nnc(C(F)(F)F)[nH]3)CC2)C1)N1CC2(CC(n3cnc(C4CC4)n3)C2)C1 [Example 36, [6-(3-cyclopropyl-1,2,4-triazol-1-yl)-2-azaspiro[3.3]heptan-2-yl]-[7-[[5-(trifluoromethyl)-4H-1,2,4-triazol-3-yl]methyl]-2-azaspiro[3.5]nonan-2-yl]methanone] | 302
O=C(N1CC2(CC(Cn3nccc3C(F)(F)F)C2)C1)N1CC2(CC(n3cnc(C4(O)CC4)n3)C2)C1 [Example 4] | 1.74
Cc1cc(C(F)F)n(CC2CC3(C2)CN(C(=O)N2CC4(CC(n5cnc(C6(O)CC6)n5)C4)C2)C3)n1 [Example 93, [6-[[5-(difluoromethyl)-3-methyl-pyrazol-1-yl]methyl]-2-azaspiro[3.3]heptan-2-yl]-[6-[3-(1-hydroxycyclopropyl)-1,2,4-triazol-1-yl]-2-azaspiro[3.3]heptan-2-yl]methanone] | 5.48
O=C(N1CC2(CC(n3cnc(C4CC4)n3)C2)C1)N1CC2(CN(Cc3snnc3C3CCC3)C2)C1 [Example 77, [6-[(4-cyclobutylthiadiazol-5-yl)methyl]-2,6-diazaspiro[3.3]heptan-2-yl]-[6-(3-cyclopropyl-1,2,4-triazol-1-yl)-2-azaspiro[3.3]heptan-2-yl]methanone] | 1.62
O=C(N1CC2(CC(n3cnc(C4CC4)n3)C2)C1)N1CC2(CN(Cc3nc(C4CC4)ns3)C2)C1 [Example 44, [6-[(3-cyclopropyl-1,2,4-thiadiazol-5-yl)methyl]-2,6-diazaspiro[3.3]heptan-2-yl]-[6-(3-cyclopropyl-1,2,4-triazol-1-yl)-2-azaspiro[3.3]heptan-2-yl]methanone] | 5.42
Cc1cc(C2CC2)n(CC2CC3(C2)CN(C(=O)N2CC4(CC(n5cnc(C6(O)CC6)n5)C4)C2)C3)n1 [Example 133, [6-[(5-cyclopropyl-3-methyl-pyrazol-1-yl)methyl]-2-azaspiro[3.3]heptan-2-yl]-[6-[3-(1-hydroxycyclopropyl)-1,2,4-triazol-1-yl]-2-azaspiro[3.3]heptan-2-yl]methanone] | 4.54
O=C(N1CC2(CC(Cc3nc(C(F)(F)F)co3)C2)C1)N1CC2(CC(n3cnc(C4(O)CC4)n3)C2)C1 [Example 23, [6-[3-(1-hydroxycyclopropyl)-1,2,4-triazol-1-yl]-2-azaspiro[3.3]heptan-2-yl]-[6-[[4-(trifluoromethyl)oxazol-2-yl]methyl]-2-azaspiro[3.3]heptan-2-yl]methanone] | 24.5
O=C(N1CC2(CC(n3cnc(C4(O)CC4)n3)C2)C1)N1CC2(CN(Cc3nc(C4CC4)cs3)C2)C1 [Example 240, [6-[(4-cyclopropylthiazol-2-yl)methyl]-2,6-diazaspiro[3.3]heptan-2-yl]-[6-[3-(1-hydroxycyclopropyl)-1,2,4-triazol-1-yl]-2-azaspiro[3.3]heptan-2-yl]methanone] | 232
O=C(N1CC2(CC(Oc3cnn(CC(F)(F)F)c3)C2)C1)N1CC2(CC(n3cnc(C4CC4)n3)C2)C1 [Example 249, [6-(3-cyclopropyl-1,2,4-triazol-1-yl)-2-azaspiro[3.3]heptan-2-yl]-[6-[1-(2,2,2-trifluoroethyl)pyrazol-4-yl]oxy-2-azaspiro[3.3]heptan-2-yl]methanone] | 10.8
Cn1nc(C(F)(F)F)cc1CN1CCC2(CC1)CN(C(=O)N1CC3(CC(n4cnc(C5CC5)n4)C3)C1)C2 [Example 26, [6-(3-cyclopropyl-1,2,4-triazol-1-yl)-2-azaspiro[3.3]heptan-2-yl]-[7-[[2-methyl-5-(trifluoromethyl)pyrazol-3-yl]methyl]-2,7-diazaspiro[3.5]nonan-2-yl]methanone] | 3.42
O=C(N1CC2(CCN(Cc3nc(C(F)(F)F)cs3)CC2)C1)N1CC2(CC(n3cnc(C4CC4)n3)C2)C1 [Example 177, [6-(3-cyclopropyl-1,2,4-triazol-1-yl)-2-azaspiro[3.3]heptan-2-yl]-[7-[[4-(trifluoromethyl)thiazol-2-yl]methyl]-2,7-diazaspiro[3.5]nonan-2-yl]methanone] | 9.83
O=C(N1CC2(CC(Cc3n[nH]c(C4(C(F)(F)F)CC4)n3)C2)C1)N1CC2(CC(n3cnc(C4CC4)n3)C2)C1 [Example 102, [6-(3-cyclopropyl-1,2,4-triazol-1-yl)-2-azaspiro[3.3]heptan-2-yl]-[6-[[5-[1-(trifluoromethyl)cyclopropyl]-1H-1,2,4-triazol-3-yl]methyl]-2-azaspiro[3.3]heptan-2-yl]methanone] | 0.58
Cc1cc(C2CC2)nn1CC1CC2(C1)CN(C(=O)N1CC3(CC(n4cnc(C5(O)CC5)n4)C3)C1)C2 [Example 136, [6-[(3-cyclopropyl-5-methyl-pyrazol-1-yl)methyl]-2-azaspiro[3.3]heptan-2-yl]-[6-[3-(1-hydroxycyclopropyl)-1,2,4-triazol-1-yl]-2-azaspiro[3.3]heptan-2-yl]methanone] | 5.53

The next lines start with the values.

IC50 [nM] | SMILES
86.8 | O=C(N1CC2(CC(n3cnc(C4(O)CC4)n3)C2)C1)N1CC2(CN(Cc3cc(C(F)(F)F)sn3)C2)C1 [Example 155, [6-[3-(1-hydroxycyclopropyl)-1,2,4-triazol-1-yl]-2-azaspiro[3.3]heptan-2-yl]-[6-[[5-(trifluoromethyl)isothiazol-3-yl]methyl]-2,6-diazaspiro[3.3]heptan-2-yl]methanone]
2.62 | O=C(N1CC2(CC(n3cnc(C4CC4)n3)C2)C1)N1CC2(CN(Cc3nc(C(F)(F)F)cs3)C2)C1 [Example 53, [6-(3-cyclopropyl-1,2,4-triazol-1-yl)-2-azaspiro[3.3]heptan-2-yl]-[6-[[4-(trifluoromethyl)thiazol-2-yl]methyl]-2,6-diazaspiro[3.3]heptan-2-yl]methanone]
18.1 | O=C(N1CC2(CC(n3cnc(C4CC4)n3)C2)C1)N1CC2(CN(Cc3nccn3C(F)(F)F)C2)C1 [Example 236, [6-(3-cyclopropyl-1,2,4-triazol-1-yl)-2-azaspiro[3.3]heptan-2-yl]-[6-[[1-(trifluoromethyl)imidazol-2-yl]methyl]-2,6-diazaspiro[3.3]heptan-2-yl]methanone]
28.5 | O=C(N1CC2(CC(n3cnc(C4CC4)n3)C2)C1)N1CC2(CN(Cc3coc(C(F)(F)F)n3)C2)C1 [Example 214, [6-(3-cyclopropyl-1,2,4-triazol-1-yl)-2-azaspiro[3.3]heptan-2-yl]-[6-[[2-(trifluoromethyl)oxazol-4-yl]methyl]-2,6-diazaspiro[3.3]heptan-2-yl]methanone]
102 | O=C(N1CC2(CC(n3cnc(C4CC4)n3)C2)C1)N1CC2(CN(Cc3cnn(C(F)F)c3)C2)C1 [Example 263, [6-(3-cyclopropyl-1,2,4-triazol-1-yl)-2-azaspiro[3.3]heptan-2-yl]-[6-[[1-(difluoromethyl)pyrazol-4-yl]methyl]-2,6-diazaspiro[3.3]heptan-2-yl]methanone]
3.8 | O=C(N1CC2(CC(n3cnc(C4CC4)n3)C2)C1)N1CC2(CN(Cc3cc(C(F)(F)F)sn3)C2)C1 [Example 156, [6-(3-cyclopropyl-1,2,4-triazol-1-yl)-2-azaspiro[3.3]heptan-2-yl]-[6-[[5-(trifluoromethyl)isothiazol-3-yl]methyl]-2,6-diazaspiro[3.3]heptan-2-yl]methanone]
351 | Cc1nc(C(F)(F)F)c(CN2CC3(C2)CN(C(=O)N2CC4(CC(n5cnc(C6(O)CC6)n5)C4)C2)C3)s1 [Example 87, [6-[3-(1-hydroxycyclopropyl)-1,2,4-triazol-1-yl]-2-azaspiro[3.3]heptan-2-yl]-[6-[[2-methyl-4-(trifluoromethyl)thiazol-5-yl]methyl]-2,6-diazaspiro[3.3]heptan-2-yl]methanone]
1.11 | O=C(N1CC2(CC(Cc3cc(C(F)F)n[nH]3)C2)C1)N1CC2(CC(n3cnc(C(F)(F)F)n3)C2)C1 [Example 295, [6-[[3-(difluoromethyl)-1H-pyrazol-5-yl]methyl]-2-azaspiro[3.3]heptan-2-yl]-[6-[3-(trifluoromethyl)-1,2,4-triazol-1-yl]-2-azaspiro[3.3]heptan-2-yl]methanone]
2310 | O=C(N1CC2(CC(n3cnc(C(F)(F)F)n3)C2)C1)N1CC2(CN(Cc3cc[nH]n3)C2)C1 [Example 284, [6-(1H-pyrazol-3-ylmethyl)-2,6-diazaspiro[3.3]heptan-2-yl]-[6-[3-(trifluoromethyl)-1,2,4-triazol-1-yl]-2-azaspiro[3.3]heptan-2-yl]methanone]
640 | Cc1nn(CC(F)(F)F)cc1CN1CC2(C1)CN(C(=O)N1CC3(CC(n4cnc(C(F)(F)F)n4)C3)C1)C2 [Example 112, [6-[[3-methyl-1-(2,2,2-trifluoroethyl)pyrazol-4-yl]methyl]-2,6-diazaspiro[3.3]heptan-2-yl]-[6-[3-(trifluoromethyl)-1,2,4-triazol-1-yl]-2-azaspiro[3.3]heptan-2-yl]methanone]
14.8 | Cn1nc(C2CC2)cc1CN1CC2(C1)CN(C(=O)N1CC3(CC(n4cnc(C(F)(F)F)n4)C3)C1)C2 [Example 271]
15.3 | O=C(N1CC2(CC(n3cnc(C(F)(F)F)n3)C2)C1)N1CC2(CN(Cc3ncc(C(F)F)s3)C2)C1 [Example 187, [6-[[5-(difluoromethyl)thiazol-2-yl]methyl]-2,6-diazaspiro[3.3]heptan-2-yl]-[6-[3-(trifluoromethyl)-1,2,4-triazol-1-yl]-2-azaspiro[3.3]heptan-2-yl]methanone]
76.5 | O=C(N1CC2(CCN(Cc3ncc(C(F)F)s3)CC2)C1)N1CC2(CC(n3cnc(C4(O)CC4)n3)C2)C1 [Example 33, [7-[[5-(difluoromethyl)thiazol-2-yl]methyl]-2,7-diazaspiro[3.5]nonan-2-yl]-[6-[3-(1-hydroxycyclopropyl)-1,2,4-triazol-1-yl]-2-azaspiro[3.3]heptan-2-yl]methanone]

— US20260374756A1, “HETEROCYCLIC COMPOUNDS AS INHIBITORS OF MONOACYLGLYCEROL LIPASE (MAGL)” (Hoffmann-La Roche Inc., priority 2022, published 2026)
